Measured values taken from patent US8119630B2 (Arrow Therapeutics Limited, priority 2002, dated 2012).
Like-named read-outs stand apart in the source and are kept apart here.

Legend:
RSV = test: XTT assay, RSV-infected Vero cells; type: cell-based, Respiratory Syncytial Virus (RSV); conditions: Vero cells infected with RSV, m.o.i.≈0.2, 6 days at 33° C.
Method: Examples 1 to 74 and 83 to 124 were tested using the following protocol.
(§1) The inner 60 wells of 96 well tissue culture plates were seeded with Vero cells at 3×10^4 cells/well (1×10^4 cells/well for toxicity studies) in 100 or 150 μl of medium and incubated at 37° C. overnight or until nearing confluency. For primary screen, 25 μl compounds were added directly to 100 μl medium in single wells to duplicate plates. A third plate was prepared for simultaneous toxicity investigation.
(§2) For follow-up investigation, 70 μl of compound in duplicate wells were added directly to culture medium at 3.2× final concentration and ½ log serially diluted down columns of plate. A duplicate plate was prepared for simultaneous toxicity investigation.
(§3) Cells were infected with 25 μl RSV to give m.o.i.≈0.2. Some 100 μl of sterile distilled water were added to the outer wells of the plate and incubated at 33° C. for 6 days. Some 0.25 μl/ml PMS were added to stock XTT solution, final conc. […]. Then 25 μl warmed XTT/PMS solution were added to each well and incubated for 5 hours at 37° C. Plates were shaken (DynaTech Vari-Shaker) vigorously for 10 mins and allowed to cool for 15 mins before sealing. Absorbance at 450 nm was measured and data analysed using Microsoft Excel software.
Maximum OD450nm reading (uninfected, untreated control cells) corresponded to 100% inhibition. Minimum OD450nm readings (infected control cells) corresponded to 0% inhibition. Log 10 concentration was plotted against OD450nm and IC50 (Table 1) values were calculated from either reading 50% value from graph or using regression analysis.

Vero cells = test: Simultaneous toxicity investigation (XTT), Vero cells; type: cell-based; set-up: unit not given here; conditions: for TC50 (2d): Table 2, Examples 83 to 124, 2d; for TC50 (6d): Table 2, Examples 83 to 124, 6d
Method: as §1, §2
as §3, with “Some 100 μl of sterile distilled water were added to the outer wells of the plate and incubated at 33° C. for 6 days.” left out

[1] = human respiratory syncytial virus, Vero, 144 h, read-out: XTT IC50 (uM), Table 2, Examples 83 to 124
[2] = Table 2, Examples 83 to 124, read-out: XTT IC50
[3] = human respiratory syncytial virus, Vero, 144 h, read-out: XTT IC50 (uM), Table 1

Compound | IC50 (RSV; [1]) [µM] | TC50 (2d) (Vero cells) | TC50 (6d) (Vero cells) | IC50 (RSV; [2]) [µM] | IC50 (RSV; [3]) [µM]
O=C(NCc1ccc(Br)cc1)NC1N=C(c2ccccc2)c2ccccc2NC1=O (stereo not drawn) [Example 118, 1-(4-Bromo-benzyl)-3-(2-oxo-5-phenyl-2,3-dihydro-1H-benzo[e][1,4]diazepin-3-yl)-urea] | 2 | >100 | 100 | – | –
COc1cc([N+](=O)[O-])ccc1C(=O)NC1N=C(c2ccccc2)c2ccccc2NC1=O (stereo not drawn) [Example 93, 2-Methoxy-4-nitro-N-(2-oxo-5-phenyl-2,3-dihydro-1H-benzo[e][1,4]diazepin-3-yl)-benzamide] | < 0.3 | 100 | >100 | – | –
N-[5-(3-Chloro-phenyl)-2-oxo-5-phenyl-2,3-dihydro-1H-benzo[e][1,4]diazepin-3-yl]-4-nitro-benzamide [Example 102] | – | >100 | >100 | 7 | –
CCOc1ccccc1C(=O)NC1N=C(c2ccccc2)c2ccccc2NC1=O (stereo not drawn) [Example 106, 2-Ethoxy-N-(2-oxo-5-phenyl-2,3-dihydro-1H-benzo[e][1,4]diazepin-3-yl)-benzamide] | 0.7 | >100 | >100 | – | –
COc1ccc(CNC(=O)NC2N=C(c3ccccc3)c3ccccc3NC2=O)cc1 (stereo not drawn) [Example 85, 1-(4-Methoxy-benzyl)-3-(2-oxo-5-phenyl-2,3-dihydro-1H-benzo[e][1,4]diazepin-3-yl)-urea] | 4 | >100 | >100 | – | –
COc1ccc([N+](=O)[O-])c(C(=O)NC2N=C(c3ccccc3)c3ccccc3NC2=O)c1 (stereo not drawn) [Example 94, 5-Methoxy-2-nitro-N-(2-oxo-5-phenyl-2,3-dihydro-1H-benzo[e][1,4]diazepin-3-yl)-benzamide] | 1.5 | >100 | >100 | – | –
N-[5-(3-Chloro-phenyl)-2-oxo-5-phenyl-2,3-dihydro-1H-benzo[e][1,4]diazepin-3-yl]-2-nitro-benzamide [Example 101] | – | 100 | 100 | 2.5 | –
O=C(NC1N=C(c2ccccc2)c2ccccc2NC1=O)OCc1ccccc1 (stereo not drawn) [Example 114, (2-Oxo-5-phenyl-2,3-dihydro-1H-benzo[e][1,4]diazepin-3-yl)-carbamic acid benzyl ester] | 5 | >100 | 60 | – | –
COc1ccc(Cl)cc1C(=O)NC1N=C(c2ccccc2)c2ccccc2NC1=O (stereo not drawn) [Example 91, 5-chloro-2-methoxy-N-(2-oxo-5-phenyl-2,3-dihydro-1H-benzo[e][1,4]diazepin-3-yl)benzamide] | 0.3 | 100 | 100 | – | –
O=C(Nc1ccc(OC(F)(F)F)cc1)NC1N=C(c2ccccc2)c2ccccc2NC1=O (stereo not drawn) [Example 116, 1-(2-Oxo-5-phenyl-2,3-dihydro-1H-benzo[e][1,4]diazepin-3-yl)-3-(4-trifluoromethoxy-phenyl)-urea] | 2 | 20 | 20 | – | –
COc1ccc(Br)c(C(=O)NC2N=C(c3ccccc3)c3ccccc3NC2=O)c1 (stereo not drawn) [Example 108, 2-Bromo-5-methoxy-N-(2-oxo-5-phenyl-2,3-dihydro-1H-benzo[e][1,4]diazepin-3-yl)-benzamide] | 2 | >100 | >100 | – | –
O=C(Nc1ccc([N+](=O)[O-])cc1)NC1N=C(c2ccccc2)c2ccccc2NC1=O (stereo not drawn) [Example 122, 1-(4-Nitro-phenyl)-3-(2-oxo-5-phenyl-2,3-dihydro-1H-benzo[e][1,4]diazepin-3-yl)-urea] | 0.4 | 60 | 20 | – | –
1-(2-Chloro-6-methyl-phenyl)-3-(2-oxo-5-phenyl-2,3-dihydro-1H-benzo[e][1,4]diazepin-3-yl)-urea [Example 121] | – | 60 | 60 | 4 | –
CC(C)C(=O)NC1N=C(c2ccccc2)c2ccccc2NC1=O (stereo not drawn) [Example 5, N-(2-Oxo-5-phenyl-2,3-dihydro-1H-benzo[e][1,4]diazepin-3-yl)-isobutyramide] | – | – | – | – | 2.5
O=C(Cc1ccc(C(F)(F)F)cc1)NC1N=C(c2ccccc2)c2ccccc2NC1=O (stereo not drawn) [Example 67, N-(2-Oxo-5-phenyl-2,3-dihydro-1H-benzo[e][1,4]diazepin-3-yl)-2-(4-trifluoromethyl-phenyl)-acetamide] | – | – | – | – | 1.5
O=C(Nc1ccc(F)cc1)NC1N=C(c2ccccc2)c2ccccc2NC1=O (stereo not drawn) [Example 74, 1-(4-Fluoro-phenyl)-3-(2-oxo-5-phenyl-2,3-dihydro-1H-benzo[e][1,4]diazepin-3-yl)-urea] | – | – | – | – | 1.5

Compound | IC50 (RSV; [1]) [µM] | TC50 (2d) (Vero cells) | TC50 (6d) (Vero cells) | IC50 (RSV; [2]) [µM] | IC50 (RSV; [3]) [µM]
O=C(Nc1ccccc1F)NC1N=C(c2ccccc2)c2ccccc2NC1=O (stereo not drawn) [Example 73a, 1-(2-Fluoro-phenyl)-3-(2-oxo-5-phenyl-2,3-dihydro-1H-benzo[e][1,4]diazepin-3-yl)-urea] | – | – | – | – | 1
O=C(NC1N=C(c2ccccc2)c2ccccc2NC1=O)c1ccc(Br)cc1 (stereo not drawn) [Example 23, 4-Bromo-N-(2-oxo-5-phenyl-2,3-dihydro-1H-benzo[e][1,4]diazepin-3-yl)-benzamide] | – | – | – | – | 5
O=C(Nc1ccccc1F)N[C@H]1N=C(c2ccccc2)c2ccccc2NC1=O [Example 73b, (S)-1-(2-Fluoro-phenyl)-3-(2-oxo-5-phenyl-2,3-dihydro-1H-benzo[e][1,4]diazepin-3-yl)-urea] | – | – | – | – | 0.7
COc1ccccc1C(=O)NC1N=C(c2ccccc2)c2cc(Cl)ccc2NC1=O (stereo not drawn) [Example 57, N-(7-Chloro-2-oxo-5-phenyl-2,3-dihydro-1H-benzo[e][1,4]diazepin-3-yl)-2-methoxy-benzamide] | – | – | – | – | 0.7
O=C1Nc2ccccc2C(c2ccccc2)=NC1NCc1ccc([N+](=O)[O-])cc1 (stereo not drawn) [Example 44, 3-(4-Nitro-benzylamino)-5-phenyl-1,3-dihydro-benzo[e][1,4]diazepin-2-one] | – | – | – | – | 10
COc1cccc(CNC2N=C(c3ccccc3)c3ccccc3NC2=O)c1 (stereo not drawn) [Example 46, 3-(3-Methoxy-benzylamino)-5-phenyl-1,3-dihydro-benzo[e][1,4]diazepin-2-one] | – | – | – | – | 30
COc1cc([N+](=O)[O-])ccc1C(=O)NC1N=C(c2ccccc2)c2ccccc2NC1=O (stereo not drawn) [Example 27a, 2-Methoxy-4-nitro-N-(2-oxo-5-phenyl-2,3-dihydro-1H-benzo[e][1,4]diazepin-3-yl)-benzamide] | – | – | – | – | 0.3
COc1ccc(CC(=O)NC2N=C(c3ccccc3)c3ccccc3NC2=O)cc1 (stereo not drawn) [Example 62, 2-(4-Methoxy-phenyl)-N-(2-oxo-5-phenyl-2,3-dihydro-1H-benzo[e][1,4]diazepin-3-yl)-acetamide] | – | – | – | – | 1.5
CCC(=O)NC1N=C(c2ccccc2)c2ccccc2NC1=O (stereo not drawn) [Example 3, N-(2-Oxo-5-phenyl-2,3-dihydro-1H-benzo[e][1,4]diazepin-3-yl)-propionamide] | – | – | – | – | 2.5
O=C(NC1N=C(c2ccccc2)c2ccccc2NC1=O)c1ccccc1C(F)(F)F (stereo not drawn) [Example 22, N-(2-oxo-5-phenyl-2,3-dihydro-1H-benzo[e][1,4]diazepin-3-yl)-2-trifluoromethyl-benzamide] | – | – | – | – | 4
O=C(NC1N=C(c2ccccc2)c2ccccc2NC1=O)c1ccc2c(c1)CCO2 (stereo not drawn) [Example 29, 2,3-Dihydro-benzofuran-5-carboxylic acid (2-oxo-5-phenyl-2,3-dihydro-1H-benzo[e][1,4]diazepin-3-yl)-amide] | – | – | – | – | 2
O=C(NC1N=C(c2ccccc2)c2ccccc2NC1=O)c1ccno1 (stereo not drawn) [Example 30, Isoxazole-5-carboxylic acid (2-oxo-5-phenyl-2,3-dihydro-1H-benzo[e][1,4]diazepin-3-yl)-amide] | – | – | – | – | 3
O=C1Nc2ccccc2C(c2ccccc2)=NC1NCc1ccco1 (stereo not drawn) [Example 50, 3-[(Furan-2-ylmethyl)-amino]-5-phenyl-1,3-dihydro-benzo[e][1,4]diazepin-2-one] | – | – | – | – | 50
O=C(Cc1cccc(C(F)(F)F)c1)NC1N=C(c2ccccc2)c2ccccc2NC1=O (stereo not drawn) [Example 66, N-(2-Oxo-5-phenyl-2,3-dihydro-1H-benzo[e][1,4]diazepin-3-yl)-2-(3-trifluoromethyl-phenyl)-acetamide] | – | – | – | – | 1.5
O=C(NC1N=C(c2ccccc2)c2ccccc2NC1=O)c1ccccc1 (stereo not drawn) [Example 13, N-(2-Oxo-5-phenyl-2,3-dihydro-1H-benzo[e][1,4]diazepin-3-yl)-benzamide] | – | – | – | – | 1.5
